Measured values published in PMC4035740 (The Journal of General Physiology, 2014).
Positions count from the first letter of the chain named. Read-outs that look alike come from different tables or passages of the source.

What was measured:
Type in all cases: cell-based
[1] = target: T1, rat P2X2 tandem trimer D315A–D315A–D315A (Rattus norvegicus, UniProt P49653, D315A); conditions: at −160 mV
T1 sequence (P49653 1-472 D315A) 1: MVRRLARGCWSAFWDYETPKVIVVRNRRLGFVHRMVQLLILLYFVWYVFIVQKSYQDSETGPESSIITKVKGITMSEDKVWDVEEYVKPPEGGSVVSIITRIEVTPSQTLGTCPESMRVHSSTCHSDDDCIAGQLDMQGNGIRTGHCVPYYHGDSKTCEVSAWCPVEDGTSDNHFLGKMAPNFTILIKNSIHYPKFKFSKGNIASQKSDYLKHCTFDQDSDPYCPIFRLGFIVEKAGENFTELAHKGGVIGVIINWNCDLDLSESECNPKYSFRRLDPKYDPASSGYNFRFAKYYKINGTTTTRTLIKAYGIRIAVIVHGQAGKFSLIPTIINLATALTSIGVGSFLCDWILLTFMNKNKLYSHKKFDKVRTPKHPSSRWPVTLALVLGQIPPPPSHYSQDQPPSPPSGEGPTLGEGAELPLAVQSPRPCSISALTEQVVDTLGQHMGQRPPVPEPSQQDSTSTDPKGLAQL
T1 sequence (P49653 1-472 D315A) 2: T1 sequence (P49653 1-472 D315A) 1
T1 sequence (P49653 1-472 D315A) 3: T1 sequence (P49653 1-472 D315A) 1

rat P2X2 D315A = target: T2, rat P2X2 D315A (Rattus norvegicus, UniProt P49653, D315A); test: ATP dose–response, two-electrode voltage clamp in Xenopus oocytes, D315A; conditions: at −160 mV
T2 sequence (P49653 1-472 D315A): T1 sequence (P49653 1-472 D315A) 1

[2] = target: T3, rat P2X2 tandem trimer WT–WT–K308A&K69A (Rattus norvegicus, UniProt P49653, K308A/K69A); test: Hetero-assembly test, activation by ATP, WT–WT–K308A&K69A; conditions: 1 mM [ATP], days 1 and 2 after RNA injection
T3 sequence (P49653 1-472) 1: T1 sequence (P49653 1-472 D315A) 1 with A315D
T3 sequence (P49653 1-472) 2: T1 sequence (P49653 1-472 D315A) 1 with A315D
T3 sequence (P49653 1-472 K69A/K308A): T1 sequence (P49653 1-472 D315A) 1 with K69A, K308A, A315D

[3] = target: T4, rat P2X2 tandem trimer D315A–D315A–WT (Rattus norvegicus, UniProt P49653, D315A); conditions: at −160 mV
T4 sequence (P49653 1-472 D315A) 1: T1 sequence (P49653 1-472 D315A) 1
T4 sequence (P49653 1-472 D315A) 2: T1 sequence (P49653 1-472 D315A) 1
T4 sequence (P49653 1-472): T1 sequence (P49653 1-472 D315A) 1 with A315D

[4] = target: T5, rat P2X2 tandem trimer WT–T339S–T339S (Rattus norvegicus, UniProt P49653, T339S)
T5 sequence (P49653 1-472): T1 sequence (P49653 1-472 D315A) 1 with A315D
T5 sequence (P49653 1-472 T339S) 2: T1 sequence (P49653 1-472 D315A) 1 with A315D, T339S
T5 sequence (P49653 1-472 T339S) 3: T1 sequence (P49653 1-472 D315A) 1 with A315D, T339S

[5] = target: T6, rat P2X2 tandem trimer K308A–WT–WT (Rattus norvegicus, UniProt P49653, K308A); test: ATP dose–response, two-electrode voltage clamp in Xenopus oocytes, K308A–WT–WT
T6 sequence (P49653 1-472 K308A): T1 sequence (P49653 1-472 D315A) 1 with K308A, A315D
T6 sequence (P49653 1-472) 2: T1 sequence (P49653 1-472 D315A) 1 with A315D
T6 sequence (P49653 1-472) 3: T1 sequence (P49653 1-472 D315A) 1 with A315D

[6] = target: T7, rat P2X2 tandem trimer WT–K308A&K69A–WT (Rattus norvegicus, UniProt P49653, K308A/K69A); test: Hetero-assembly test, activation by ATP, WT–K308A&K69A–WT; conditions: 1 mM [ATP], days 1 and 2 after RNA injection
T7 sequence (P49653 1-472) 1: T1 sequence (P49653 1-472 D315A) 1 with A315D
T7 sequence (P49653 1-472 K69A/K308A): T1 sequence (P49653 1-472 D315A) 1 with K69A, K308A, A315D
T7 sequence (P49653 1-472) 3: T1 sequence (P49653 1-472 D315A) 1 with A315D

[7] = target: T8, rat P2X2 tandem trimer T339S–T339S–T339S (Rattus norvegicus, UniProt P49653, T339S)
T8 sequence (P49653 1-472 T339S) 1: T1 sequence (P49653 1-472 D315A) 1 with A315D, T339S
T8 sequence (P49653 1-472 T339S) 2: T1 sequence (P49653 1-472 D315A) 1 with A315D, T339S
T8 sequence (P49653 1-472 T339S) 3: T1 sequence (P49653 1-472 D315A) 1 with A315D, T339S

rat P2X2 WT = target: T9, rat P2X2 WT (Rattus norvegicus, UniProt P49653); test: ATP dose–response, two-electrode voltage clamp in Xenopus oocytes, WT
T9 sequence (P49653 1-472): T1 sequence (P49653 1-472 D315A) 1 with A315D

[8] = target: T10, rat P2X2 tandem trimer WT–WT–K308A (Rattus norvegicus, UniProt P49653, K308A); test: ATP dose–response, two-electrode voltage clamp in Xenopus oocytes, WT–WT–K308A
T10 sequence (P49653 1-472) 1: T1 sequence (P49653 1-472 D315A) 1 with A315D
T10 sequence (P49653 1-472) 2: T1 sequence (P49653 1-472 D315A) 1 with A315D
T10 sequence (P49653 1-472 K308A): T1 sequence (P49653 1-472 D315A) 1 with K308A, A315D

[9] = target: T11, rat P2X2 tandem trimer WT–K308A–WT (Rattus norvegicus, UniProt P49653, K308A); test: ATP dose–response, two-electrode voltage clamp in Xenopus oocytes, WT–K308A–WT
T11 sequence (P49653 1-472) 1: T1 sequence (P49653 1-472 D315A) 1 with A315D
T11 sequence (P49653 1-472 K308A): T1 sequence (P49653 1-472 D315A) 1 with K308A, A315D
T11 sequence (P49653 1-472) 3: T1 sequence (P49653 1-472 D315A) 1 with A315D

[10] = target: T12, rat P2X2 tandem trimer K308A&K69A–WT–WT (Rattus norvegicus, UniProt P49653, K308A/K69A); test: Hetero-assembly test, activation by ATP, K308A&K69A–WT–WT; conditions: 1 mM [ATP], days 1 and 2 after RNA injection
T12 sequence (P49653 1-472 K69A/K308A): T1 sequence (P49653 1-472 D315A) 1 with K69A, K308A, A315D
T12 sequence (P49653 1-472) 2: T1 sequence (P49653 1-472 D315A) 1 with A315D
T12 sequence (P49653 1-472) 3: T1 sequence (P49653 1-472 D315A) 1 with A315D

rat P2X2 K308A = target: T13, rat P2X2 K308A (Rattus norvegicus, UniProt P49653, K308A); test: ATP activation of the K308A mutant channel; conditions: K308A mutation, very high concentrations of ATP (>3 mM)
T13 sequence (P49653 1-472 K308A): T1 sequence (P49653 1-472 D315A) 1 with K308A, A315D

[11] = target: T14, rat P2X2 tandem trimer D315A–WT–WT (Rattus norvegicus, UniProt P49653, D315A); test: ATP dose–response, two-electrode voltage clamp in Xenopus oocytes, D315A–WT–WT
T14 sequence (P49653 1-472 D315A): T1 sequence (P49653 1-472 D315A) 1
T14 sequence (P49653 1-472) 2: T1 sequence (P49653 1-472 D315A) 1 with A315D
T14 sequence (P49653 1-472) 3: T1 sequence (P49653 1-472 D315A) 1 with A315D

[12] = target: T15, rat P2X2 tandem trimer WT–WT–WT (Rattus norvegicus, UniProt P49653); test: ATP dose–response, two-electrode voltage clamp in Xenopus oocytes, WT–WT–WT
T15 sequence (P49653 1-472) 1: T1 sequence (P49653 1-472 D315A) 1 with A315D
T15 sequence (P49653 1-472) 2: T1 sequence (P49653 1-472 D315A) 1 with A315D
T15 sequence (P49653 1-472) 3: T1 sequence (P49653 1-472 D315A) 1 with A315D

[13] = target: T16, rat P2X2 tandem trimer WT–T339S–WT (Rattus norvegicus, UniProt P49653, T339S); test: ATP dose–response, two-electrode voltage clamp in Xenopus oocytes, WT–T339S–WT
T16 sequence (P49653 1-472) 1: T1 sequence (P49653 1-472 D315A) 1 with A315D
T16 sequence (P49653 1-472 T339S): T1 sequence (P49653 1-472 D315A) 1 with A315D, T339S
T16 sequence (P49653 1-472) 3: T1 sequence (P49653 1-472 D315A) 1 with A315D

With `Nc1ncnc2c1ncn2[C@@H]1O[C@H](COP(=O)(O)OP(=O)(O)OP(=O)(O)O)[C@@H](O)[C@H]1O` [ATP, adenosine triphosphate] the EC50 ([1]; EC50 (1), first phase) was 1.5 ± 0.8 µM, the EC50 ([1]; EC50 (2), second phase) was 130 ± 5 µM and the “Hill (1)” value ([1]; first phase) was 3.7 ± 0.6. For the same molecule, the EC50 (rat P2X2 D315A; EC50 (1), first phase of biphasic dose–response) was 1.2 ± 0.6 µM, the EC50 (rat P2X2 D315A; EC50 (2), second phase of biphasic dose–response) was 89.1 ± 1.48 µM and the “Hill (1)” value (rat P2X2 D315A; first phase) was 2.4 ± 0.7. The “activation in response to ATP” value [2] was “did not show any prominent activation”, the EC50 ([3]; EC50 (1), first phase) was 3.15 ± 0.9 µM and the EC50 ([3]; EC50 (2), second phase) was 794 ± 12 µM. It also gave an EC50 [4] of 6 ± 0.4 µM, a Hill ([4]; WT–T339S–T339S, at −160 mV) of 1.5 ± 0.2 and an EC50 [5] of 42.3 ± 2.2 µM. For the same molecule, the Hill coefficient ([5]; K308A–WT–WT, at −160 mV, mean ± SEM) was 1.7 ± 0.18, the “activation in response to ATP” value [6] was “did not show any prominent activation” and the EC50 [7] was 2.4 ± 0.4 µM. It also gave a Hill ([7]; T339S–T339S–T339S, at −160 mV) of 1.5 ± 0.3, an EC50 (rat P2X2 WT) of 14.5 ± 1.2 µM and a Hill coefficient (rat P2X2 WT; WT, at −160 mV, Xenopus oocytes, mean ± SEM) of 1.7 ± 0.2. The EC50 [8] was 33.3 ± 1.65 µM, the Hill coefficient ([8]; WT–WT–K308A, at −160 mV, mean ± SEM) was 1.6 ± 1.4 and the EC50 [9] was 22.9 ± 1.8 µM. For the same molecule, the “activation in response to ATP” value [10] was “did not show any prominent activation”, the “channel response to ATP” value (rat P2X2 K308A) was “unresponsive” and the EC50 [11] was 6.02 ± 1.1 µM. It also gave a Hill ([11]; D315A–WT–WT, at −160 mV) of 1.4 ± 0.1, an EC50 [12] of 19.1 ± 2 µM and an EC50 [13] of 12.2 ± 1.2 µM. For the same molecule, the Hill ([13]; WT–T339S–WT, at −160 mV) was 1.5 ± 0.9.
